{"source": "patent US5763433A", "about": "“Pharmaceutical compositions containing 3-beta-hydroxylated 6,7-substituted steroid derivatives, and use thereof” (Conservatoire National des Arts et Metiers, priority 1992, dated 1998)", "key": {"anti-lysozyme IgG": {"system": "anti-lysozyme IgG", "test": "Immunoenzymatic measurement of anti-lysozyme IgG in serum of mice immunized against lysozyme", "assay_type": "in vivo, C57BL/6 mice", "details": "for Optical densities +/- SD, anti-lysozyme IgG, 1/180 serial dilution: serum 1/180; for Optical densities +/- SD, anti-lysozyme IgG, 1/180 serial dilution / Optical densities +/- SD, anti-lysozyme IgG, 1/540 serial dilution / Optical densities +/- SD, anti-lysozyme IgG, first serial dilution: s.c., mean of 5 mice; for Optical densities +/- SD, anti-lysozyme IgG, 1/180 serial dilution / Optical densities +/- SD, anti-lysozyme IgG, 1/540 serial dilution: doses and timing as E1; for Optical densities +/- SD, anti-lysozyme IgG, 1/540 serial dilution: serum 1/540; for Optical densities +/- SD, anti-lysozyme IgG, first serial dilution: serum dilution not given, PREG 0,5 g/kg, DHEA 1,0 g/kg, ADIOL 125 mg/kg 1 hour before lysozyme, 7-hydroxy-PREG and 7-hydroxy-DHEA 6,25 mg/kg, 7β-hydroxy-DHEA 50,0 mg/kg, 7- and 7β-hydroxy-ADIOL 25,0 mg/kg with lysozyme; for Effect on serum anti-lysozyme IgG (in words): steroid administered s.c. simultaneously with lysozyme; for Effect on serum concentrations of anti-lysozyme IgG (in words): steroid administered s.c. at least one hour prior to the injection of lysozyme", "method": "The immunity effector effect was tested by subcutaneous injection concomitantly with that of an antigen and the 7-alpha- or 7-beta-hydroxylated derivative into C57BL/6 mice according to a standard immunization protocol (Methods in Enzymology (1980), vol. 70).\nThe effect of the compound as cellular immunity effector is measured by the quantity of circulating IgG directed against the antigen 21 days after the injection and after a booster injection 14 days layer.\nThirty five groups of five 6-weeks old C57BL/6 mice are given a subcutaneous injection of 200 ug of hen egg white lysozyme on days one and fourteen of the immunization protocol. Solutions of DHEA (Sigma D-4500) in dimethyl sulfoxide (DMSO) are injected in the same manner at variable times before the first injection of lysozyme. Amounts ranging from 0.25 and 2 g/kg are used. Ten other groups of 5 mice are given a subcutaneous injection of 6.25 to 50 mg/kg of 7-alpha-hydroxy-DHEA or 7-beta-hydroxy-DHEA dissolved in DMSO at the same time as the first lysozyme injection. Two groups receive only DMSO with lysozyme (controls). The blanks correspond to one group of 5 mice and are not given an injection.\nThree weeks after the first injections the animals, then aged 9 weeks, are decapitated. The blood of each animal is collected and the presence of anti-lysozyme G immunoglobulins (IgG) is measured in serial dilutions of the sera by an immunoenzymatic titration using goat anti-mouse (Fc) IgG immunoglobulin labelled with peroxidase.\nA group of 5 mice is given the subcutaneous injection of 125 mg/kg of 5-androstene-3-beta, 17-beta-diol (ADIOL) one hour prior to the first injection of lysozyme, and two groups of 5 mice are treated with 25 mg/kg of 7-alpha-hydroxy-ADIOL or 7-beta-hydroxy-ADIOL at the time of the first lysozyme injection.\nDHEA or PREG or ADIOL is injected subcutaneously 1 hour before the first lysozyme injection. The 7-hydroxylated derivatives are administered simultaneously with the lysozyme injection. The immunoenzymatic measurement of the anti-lysozyme IgGs in the serial dilutions of the sera of each animal makes use of goat anti-mouse (Fc) IgG immunoglobulin, labelled with peroxidase in 96-well plates treated with lysozyme. The mean value of the optical densities measured in each group of 5 mice is calculated as well as the standard deviation (SD)."}, "[1]": {"target": "T1, nuclear binding of tritiated dexamethazone (glucocorticoid receptors) (Mus musculus, UniProt P06537)", "T1 construct": "The liver, brain, spleen and thymus are excised and the cells of each organ are recovered; from tissue; host or cells: isolated cells of liver, brain, spleen and thymus of metyrapone-treated C57BL/6 mice", "T1 sequence (P06537 1-792)": "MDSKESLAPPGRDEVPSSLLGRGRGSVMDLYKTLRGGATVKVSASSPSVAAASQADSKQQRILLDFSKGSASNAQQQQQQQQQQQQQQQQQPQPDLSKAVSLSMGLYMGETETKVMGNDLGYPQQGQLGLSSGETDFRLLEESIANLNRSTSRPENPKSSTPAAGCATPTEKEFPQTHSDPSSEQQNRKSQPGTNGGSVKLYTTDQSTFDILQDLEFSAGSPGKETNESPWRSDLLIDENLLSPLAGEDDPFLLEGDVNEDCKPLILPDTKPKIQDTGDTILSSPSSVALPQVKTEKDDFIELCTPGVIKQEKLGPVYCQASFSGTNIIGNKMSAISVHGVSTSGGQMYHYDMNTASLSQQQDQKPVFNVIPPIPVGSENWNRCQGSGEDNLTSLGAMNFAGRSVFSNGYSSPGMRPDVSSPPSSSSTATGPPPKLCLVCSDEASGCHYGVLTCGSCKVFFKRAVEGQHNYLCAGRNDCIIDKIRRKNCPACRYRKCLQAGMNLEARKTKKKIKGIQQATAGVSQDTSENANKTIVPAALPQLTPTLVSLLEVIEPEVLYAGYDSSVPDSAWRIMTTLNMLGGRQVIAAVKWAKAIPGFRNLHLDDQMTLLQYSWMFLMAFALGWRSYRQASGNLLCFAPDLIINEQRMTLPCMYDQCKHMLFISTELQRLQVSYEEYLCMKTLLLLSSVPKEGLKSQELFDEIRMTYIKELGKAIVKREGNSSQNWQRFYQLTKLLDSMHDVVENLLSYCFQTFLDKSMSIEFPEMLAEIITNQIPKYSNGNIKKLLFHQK", "test": "Displacement of the nuclear binding of tritiated dexamethazone in isolated liver, brain, thymus and spleen cells", "set-up": "species or system C57BL/6 mouse", "method": "The isolated hepatocytes are incubated for 1 hour at room temperature with increasing concentrations (2-80 nM) of ^3 H-dexamethazone (DEX*). […] The hepatocyte nuclei are then isolated and purified and the radioactivity corresponding to the DEX* still bound is measured and expressed in cpm/10 ug of DNA. The area under the curve DEX* corresponds to zero displacement of the radioactivity. The area under the curve DEX*/DEX which corresponds to the displacement of radioactivity by the same molecule is taken arbitrarily as 100. The areas under the curve obtained with the other steroids makes it possible to calculate by interpolation between the areas zero and 100 their displacement coefficients for the nuclear binding of DEX*.\nThe mice are anesthetized with ether and bled, then perfused intracardially with physiological serum containing collagenase B (0.03 g/100 ml) for 10 minutes. […] The quantities of cells obtained are estimated on the base of the measurement of the DNA contained in the preparations.\nThe nuclei are recovered and their radioactive content measured as described by the authors cited above.\nThe area under the curve of tritiated dexamethazone alone is measured and taken as zero. […] The displacement coefficients found for each of the other steroids are calculated by interpolation on this scale, each result being the mean of a triplicate determination."}, "[2]": {"system": "cytosolic or nuclear receptors specific for 7-alpha-hydroxy-DHEA", "test": "Search for cytosolic or nuclear receptors specific for 7-alpha-hydroxy-DHEA (studies not reported)", "assay_type": "binding", "details": "studies not reported here"}, "antiviral response": {"system": "antiviral response", "details": "20 mg/kg to 320 mg/kg s.c. or 0.4% by weight of the diet; cited from earlier work"}, "[3]": {"system": "human viruses Edwards CVB4 or HSV2", "details": "s.c., of the order of 1 g/kg 4 hours prior to viral infection; also oral 0.4% in the diet for 16 weeks; cited from earlier work"}, "AIDS": {"system": "AIDS", "details": "400 to 2500 mg/day; cited from earlier work"}, "[4]": {"details": "cited from earlier work"}}, "data": [{"smiles": "C[C@]12CC[C@H](O)CC1=C[C@@H](O)[C@@H]1[C@@H]2CC[C@]2(C)C(=O)CC[C@@H]12", "note": "[7-hydroxy-DHEA, 3-beta, 7-alpha-dihydroxy-androst-5-en-17-one]", "values": [{"measurement": "Optical densities +/- SD, anti-lysozyme IgG, 1/180 serial dilution", "setting": "anti-lysozyme IgG", "result": "0,74 ± 0,21"}, {"measurement": "Optical densities +/- SD, anti-lysozyme IgG, 1/540 serial dilution", "setting": "anti-lysozyme IgG", "result": "0,43 ± 0,12"}, {"measurement": "Optical densities +/- SD, anti-lysozyme IgG, first serial dilution", "setting": "anti-lysozyme IgG", "result": "1,21 ± 0,37"}, {"measurement": "Effect on serum anti-lysozyme IgG (in words)", "setting": "anti-lysozyme IgG; listed as 7-alpha-OH-DHEA", "result": "particularly marked effect of the low doses"}, {"measurement": "Effect on serum anti-lysozyme IgG (in words)", "setting": "anti-lysozyme IgG; listed as 7-alpha-hydroxy-DHEA", "result": "much more active than its 7-beta epimer"}, {"measurement": "Displacement of tritiated dexamethazone from nuclear binding / anti-glucocorticoid action (in words)", "setting": "[1]; 100-fold excess of steroid", "result": "more effective that the 7-beta epimer"}, {"measurement": "Displacement coefficient for nuclear binding of tritiated dexamethazone, Brain", "setting": "[1]; brain cells, 100-fold excess of steroid, no competitor = zero, unlabelled dexamethazone = 100, mean of triplicate", "result": 49}, {"measurement": "Displacement coefficient for nuclear binding of tritiated dexamethazone, Liver", "setting": "[1]; liver cells, 100-fold excess of steroid over 2-80 nM 3H-dexamethazone, no competitor = zero, unlabelled dexamethazone = 100, mean of triplicate, 60 min", "result": 95}, {"measurement": "Displacement coefficient for nuclear binding of tritiated dexamethazone, Spleen", "setting": "[1]; spleen cells, 100-fold excess of steroid, no competitor = zero, unlabelled dexamethazone = 100, mean of triplicate", "result": 91}, {"measurement": "Displacement coefficient for nuclear binding of tritiated dexamethazone, Thymus", "setting": "[1]; thymus cells, 100-fold excess of steroid, no competitor = zero, unlabelled dexamethazone = 100, mean of triplicate", "result": 85}, {"measurement": "Existence of specific cytosolic or nuclear receptors", "setting": "[2]", "result": "do not exist"}]}, {"smiles": "C[C@]12CC[C@H]3[C@@H](CC=C4C[C@@H](O)CC[C@@]43C)[C@@H]1CC[C@@H]2O", "note": "[ADIOL, 5-androstene-3-beta, 17-beta-diol, reference compound]", "values": [{"measurement": "Optical densities +/- SD, anti-lysozyme IgG, 1/180 serial dilution", "setting": "anti-lysozyme IgG", "result": "0,37 ± 0,06"}, {"measurement": "Optical densities +/- SD, anti-lysozyme IgG, 1/540 serial dilution", "setting": "anti-lysozyme IgG", "result": "0,22 ± 0,03"}, {"measurement": "Optical densities +/- SD, anti-lysozyme IgG, first serial dilution", "setting": "anti-lysozyme IgG", "result": "0,26 ± 0,09"}, {"measurement": "Effect on serum concentrations of anti-lysozyme IgG (in words)", "setting": "anti-lysozyme IgG", "result": "increase the serum concentrations of anti-lysozyme IgG"}, {"measurement": "Antiviral response", "setting": "antiviral response", "result": "enhanced antiviral response"}]}, {"smiles": "C[C@]12CC[C@H](O)CC1=CC[C@@H]1[C@@H]2CC[C@]2(C)C(=O)CC[C@@H]12", "note": "[DHEA, 3-beta-hydroxy-5-androsten-17-one, reference compound]", "values": [{"measurement": "Optical densities +/- SD, anti-lysozyme IgG, 1/180 serial dilution", "setting": "anti-lysozyme IgG", "result": "0,26 ± 0,04"}, {"measurement": "Optical densities +/- SD, anti-lysozyme IgG, 1/540 serial dilution", "setting": "anti-lysozyme IgG", "result": "0,14 ± 0,02"}, {"measurement": "Optical densities +/- SD, anti-lysozyme IgG, first serial dilution", "setting": "anti-lysozyme IgG", "result": "0,40 ± 0,06"}, {"measurement": "Effect on serum concentrations of anti-lysozyme IgG (in words)", "setting": "anti-lysozyme IgG", "result": "increase the serum concentrations of anti-lysozyme IgG"}, {"measurement": "Survival of infected mice", "setting": "[3]", "result": "enables the survival of mice infected by the human viruses Edwards CVB4 or HSV2 to be increased"}, {"measurement": "Effect on patients suffering from AIDS", "setting": "AIDS", "result": "positive effect"}, {"measurement": "Solubility in aqueous solutions", "setting": "[4]", "result": "low solubility"}]}]}
